# Measurements published in PubChem BioAssay (NCI).
#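 In this assay, cells in 96-well plates receive the compound at five concentrations for 48 hours. Endpoints are linearly interpolated between the surrounding concentrations. At the TGI there is no net growth.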
# How the values were obtained:
# Test in all cases: NCI tumour cell line growth inhibition, 48 h
# HOP-18 NSCLC = tested on: HOP-18 NSCLC
# DMS 273 small cell lung = tested on: DMS 273 small cell lung
# DMS 114 small cell lung = tested on: DMS 114 small cell lung
# DLD-1 colon = tested on: DLD-1 colon
# SNB-78 CNS = tested on: SNB-78 CNS
# LXFL 529 NSCLC = tested on: LXFL 529 NSCLC
# RXF-631 renal = tested on: RXF-631 renal
# XF 498 CNS = tested on: XF 498 CNS
# KM20L2 colon = tested on: KM20L2 colon
# SN12K1 renal = tested on: SN12K1 renal
# P388/ADR leukemia = tested on: P388/ADR leukemia
# P388 leukemia = tested on: P388 leukemia
Compound,TGI (HOP-18 NSCLC) [µM],TGI (DMS 273 small cell lung) [µM],TGI (DMS 114 small cell lung) [µM],TGI (DLD-1 colon) [µM],TGI (SNB-78 CNS) [µM],TGI (LXFL 529 NSCLC) [µM],TGI (RXF-631 renal) [µM],TGI (XF 498 CNS) [µM],TGI (KM20L2 colon) [µM],TGI (SN12K1 renal) [µM],TGI (P388/ADR leukemia) [µM],TGI (P388 leukemia) [µM]
C[n+]1c2ccccc2c(NC(CS)C(=O)O)c2ccccc21 (centres undefined),> 100,89.9,95.8,> 100,> 100,> 100,> 100,33.9,> 100,,,
N=[N+]=CC(=O)CCC(NC(=O)C(CCC(=O)C=[N+]=N)NC(=O)CCC(N)C(=O)O)C(=O)O (centres undefined),> 100,> 100,> 100,> 100,> 100,,,> 100,> 100,> 100,> 100,> 100
C1CSC(=[N+]2CC[N+](=C3SCCS3)CC2)S1,> 100,> 100,> 100,> 100,> 100,> 100,> 100,,> 100,,,
Nc1c(C(=O)Nc2ccc(C3=NCCN3)cc2)cccc1C(=O)Nc1ccc(C2=NCCN2)cc1,> 100,> 100,> 100,> 100,> 100,,,> 100,> 100,> 100,> 100,> 100
O=C(NC1C=Nc2ccc([N+](=O)[O-])cc2NC1=O)c1cc(Cl)cc([N+](=O)[O-])c1 (centres undefined),,> 100,84.2,> 100,> 100,> 100,,> 100,> 100,,,
